A short description of series [1]: Oral bioavailability in Sprague-Dawley rat at 1 mg/kg. Conditions: in vivo. The class given is ADME, organism-based.
The nature of series [2]: Octanol-buffer distribution coefficient, log D of the compound at pH 7.4. The class given is physicochemical.
In series [3] the test system is Rattus norvegicus. Nature of the series: In vivo antagonist activity at estrogen receptor in Sprague-Dawley rat assessed as reduction in ethynylestradiol-stimulated increase in uterine wet weight at 10 mg/kg, po administered once daily via gavage for 3 days measured 24 hrs post last dose relative to control. The class given is functional. On the set-up: scale not given: the % may be the effect or the level left.

A short description of series [4]: Clearance in Sprague-Dawley rat at 1 mg/kg, iv or 1 mg/kg, po. The class given is ADME, organism-based. Conditions: in vivo.
Series [5] concerns Rattus norvegicus. The series can be described thus: In vivo antagonist activity at estrogen receptor in Sprague-Dawley rat assessed as reduction in ethynylestradiol-stimulated increase in uterine wet weight at 0.1 mg/kg, po administered once daily via gavage for 3 days measured 24 hrs post last dose relative to control. The class given is functional. Also on record: scale not given: the % may be the effect or the level left.

The subject of series [6] is MCF7. The series can be described thus: Antiproliferative activity against human MCF7 cells after 3 days by CellTiter-Glo luminescent cell viability assay. The class given is functional, cell-based.
The test system of series [7] is Rattus norvegicus. Nature of the series: In vivo antagonist activity at estrogen receptor in Sprague-Dawley rat assessed as reduction in ethynylestradiol-stimulated increase in uterine wet weight administered once daily via oral gavage for 3 days measured 24 hrs post last dose. The class given is functional, organism-based.
In series [8] the target is T1, Estrogen receptor (Homo sapiens, UniProt P03372).
T1 sequence (P03372 whole entry): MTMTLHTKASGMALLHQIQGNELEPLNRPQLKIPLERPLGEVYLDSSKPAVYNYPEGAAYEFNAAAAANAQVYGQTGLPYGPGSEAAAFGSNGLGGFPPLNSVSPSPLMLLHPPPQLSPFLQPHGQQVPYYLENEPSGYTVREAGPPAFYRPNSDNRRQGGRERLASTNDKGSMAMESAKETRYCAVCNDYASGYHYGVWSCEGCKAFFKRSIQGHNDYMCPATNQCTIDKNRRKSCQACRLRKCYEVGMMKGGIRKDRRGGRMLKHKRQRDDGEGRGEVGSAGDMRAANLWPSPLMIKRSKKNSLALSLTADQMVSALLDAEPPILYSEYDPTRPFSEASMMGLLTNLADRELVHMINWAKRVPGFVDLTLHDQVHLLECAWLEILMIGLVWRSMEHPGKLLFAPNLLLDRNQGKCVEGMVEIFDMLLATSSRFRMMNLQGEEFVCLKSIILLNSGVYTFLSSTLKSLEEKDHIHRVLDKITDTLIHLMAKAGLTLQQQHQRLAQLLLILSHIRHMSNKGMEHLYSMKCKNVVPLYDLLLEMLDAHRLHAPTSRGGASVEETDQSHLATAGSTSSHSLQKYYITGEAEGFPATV
Description: Induction of ERalpha degradation in human MCF7 cells after 4 hrs by Alexafluor-488 conjugate anti-mouse IgG antibody/Hoechst 33342 staining based immunofluorescence imaging analysis

Series [9] relates to Rattus norvegicus. The series can be described thus: In vivo antagonist activity at estrogen receptor in Sprague-Dawley rat assessed as reduction in ethynylestradiol-stimulated increase in uterine wet weight at 60 mg/kg, po administered once daily via gavage for 3 days measured 24 hrs post last dose relative to control. The class given is functional. On the set-up: scale not given: the % may be the effect or the level left.

`Oc1ccc2c(c1)O[C@@H](c1ccc(OCCN3CC(CF)C3)cc1)C1=C2CCOc2cc(O)ccc21` had a bioavailability in series [1] of 3.2%. The logD in series [2] is 3. The Activity in series [3] is 87%; in series [5], 17%; in series [7] it was “Dose-dependent effect”. This compound also displayed a clearance in [4] of 57 mL/min/kg. This compound also returned an IC50 in [6] (Homo sapiens, MCF7, 72 h) of 0.4 nM.
With `CC1=C(c2cccc(O)c2)[C@H](c2ccc(OCCN3CC(CF)C3)cc2)Oc2ccc(O)cc21`, the bioavailability in [1] worked out at 16%. Also, the logD in series [2] came to 2.9. For the same compound, the Activity in [3] was 105.7%. The clearance in series [4] was 85 mL/min/kg. The IC50 in [6] (Homo sapiens, MCF7, 72 h) came to 0.2 nM.
For `C[C@@H](COc1ccc(C2Oc3cc(O)ccc3C3=C2c2ccc(O)cc2OCC3)cc1)N1CC[C@@H](CF)C1` (some centres not stated), half-maximal inhibition in [6] (Homo sapiens, MCF7, 72 h) (IC50) was put at 0.2 nM.
The compound `Oc1ccc2c(c1)O[C@H](c1ccc(OCCN3CC(CF)C3)cc1)C1=C2CCOc2cc(O)ccc21` registered a logD in series [2] of 3.2. In series [6] (Homo sapiens, MCF7, 72 h), this compound gave an IC50 of 0.9 nM.
For `Oc1ccc2c(c1)OC(c1ccc(OCCN3CC[C@@H](CF)C3)cc1)C1=C2CCOc2cc(O)ccc21` (some centres not stated), 0.3 nM corresponded to half-maximal inhibition in series [6] (Homo sapiens, MCF7, 72 h) (IC50).
With `Oc1ccc2c(c1)OC(c1ccc(OCCN3CCCCC3)cc1)C1=C2CCOc2cc(O)ccc21` (racemic), the IC50 stood at 0.28 nM in series [8] and 1.2 nM in [6] (Homo sapiens, MCF7, 72 h).
In series [6] (Homo sapiens, MCF7, 72 h), `Oc1ccc2c(c1)OC(c1ccc(OCCN3CC(CF)C3)cc1)C1=C2CCOc2cc(O)ccc21` (racemic) gave an IC50 of 0.7 nM.
The compound `Oc1ccc2c(c1)OCCC1=C2C(c2ccc(OCCN3CC(CF)C3)cc2)Oc2ccc(O)cc21` (stereo in doubt; 17a) showed an IC50 in series [6] (mcf7) of 0.3 nM.
In the case of `Oc1ccc2c(c1)OCCC1=C2C(c2ccc(OCCN3CC(CF)C3)cc2)Oc2ccc(O)cc21` (stereo in doubt; 17b), the logD in series [2] is 2.7. Further, the clearance in series [4] worked out at 237 mL/min/kg. Also, 0.6 nM corresponded to half-maximal inhibition in [6] (Homo sapiens, MCF7, 72 h) (IC50).
With `Oc1ccc2c(c1)OC(c1ccc(OCCN3CC(CF)C3)cc1)C1=C2CCOc2ccc(O)cc21` (stereo in doubt; 18a), the figures for the IC50 in series [8] and in [6] (mcf7) were 0.61 nM and 5 nM, respectively.
`Oc1ccc2c(c1)OC(c1ccc(OCCN3CC(CF)C3)cc1)C1=C2CCOc2ccc(O)cc21` (stereo in doubt; 18b): the IC50 is 9.6 nM in series [8] and 20 nM in series [6] (mcf7).
Turning to `Oc1ccc2c(c1)C1=C(c3cc(O)ccc3OCC1)C(c1ccc(OCCN3CC(CF)C3)cc1)O2` (stereo in doubt; 19a), the IC50 in series [8] turned out to be 0.24 nM; in series [6] (mcf7) it was 0.8 nM.
The corresponding values for `Oc1ccc2c(c1)C1=C(c3cc(O)ccc3OCC1)C(c1ccc(OCCN3CC(CF)C3)cc1)O2` (stereo in doubt; 19b) are 3.2 nM and 10 nM.
For the compound `CC/C(=C(\c1ccccc1)c1ccc(OCCN(C)C)cc1)c1ccccc1` [TAMOXIFEN], in series [9], the Activity worked out at 36%.

Values taken from ChEMBL document CHEMBL4422679, “Unexpected equivalent potency of a constrained chromene enantiomeric pair rationalized by co-crystal structures in complex with estrogen receptor alpha” (Bioorg Med Chem Lett, 2019).
